Assay [1] concerns the target T1, phosphorylated ABL1(T315I)(229-499) (Homo sapiens, UniProt P00519, T315I).
T1 construct: The protocol was adapted to generate phosphorylated 10×His-tev-ABL1(T315I)(229-499) for use in the SPR studies; made in house; host or cells: E. coli; autophosphorylated in vitro with ATP/MgCl2
T1 sequence (P00519 229-499 T315I): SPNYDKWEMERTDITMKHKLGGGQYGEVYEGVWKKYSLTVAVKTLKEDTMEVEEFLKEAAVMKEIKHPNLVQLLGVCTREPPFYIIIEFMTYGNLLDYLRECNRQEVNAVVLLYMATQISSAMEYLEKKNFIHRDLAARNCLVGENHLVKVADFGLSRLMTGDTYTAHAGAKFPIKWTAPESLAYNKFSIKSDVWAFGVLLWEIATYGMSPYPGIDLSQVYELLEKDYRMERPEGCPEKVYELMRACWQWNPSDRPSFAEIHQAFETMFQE
The assay can be described thus: SPR binding to phosphorylated ABL1(T315I)(229-499). The note with it: Ni-NTA capture of 10xHis-tag. Background: SPR reads the build-up and loss of mass on a sensor chip optically.

Assay [2] has as its system human tumor cells. The note with it: growth of human tumor cells; cited from earlier work.

Molecules are shown by their SMILES. Where two headings read alike, the source gives them in different places.

Broadly, the Kd is the concentration at which binding is half-saturated. A word on the GI50: it is the concentration giving 50% growth inhibition. Take `Nc1nc(N)c(N=O)c(OCC2CCCCC2)n1` [A-0001, 6-Cyclohexylmethyloxy-5-nitroso-pyrimidine-2,4-diamine]: the Kd in assay [1] (HBST buffer, read-out: Phosphorylated ABL1(T315I)(229-499) in HBST buffer KD) was 13 µM; in assay [1] (PBST buffer, read-out: Phosphorylated ABL1(T315I)(229-499) in PBST buffer KD) it was 16 µM. In addition, in assay [2], the GI50 is 10 µM.

(Values after US20240165113A1, “METHODS OF TREATMENT FOR LEUKEMIA” (DNA SEQ 2, Inc., priority 2021, published 2024).)
